Measured values taken from the supplement of paper PMC10307832.

Tests used:
Test in all cases: relative viability (nuclei count vs DMSO), 5 days (fraction); higher = more cells survive
NCI-H1944 = tested on: NCI-H1944
Summary of the method: (§1)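 Medians of duplicate plates are given as relative viability. That measure is the nuclei count in treated wells divided by the count in vehicle wells. Counts were taken on 4× images of lung cancer cell lines in 1536-well plates, 5 days after pin-tool dosing the day after seeding with one drug alone or a fixed anchor-drug dose plus five library-drug doses (not always all listed) in √10 steps.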

HCC-827 = tested on: HCC-827
Summary of the method: as §1

NCI-H1993 = tested on: NCI-H1993
Summary of the method: as §1

LCLC-103H = tested on: LCLC-103H
Summary of the method: as §1

NCI-H1792 = tested on: NCI-H1792
Summary of the method: as §1

SW 900 = tested on: SW 900
Summary of the method: as §1

LOU-NH91 = tested on: LOU-NH91
Summary of the method: as §1

NCI-H1975 = tested on: NCI-H1975
Summary of the method: as §1

A-427 = tested on: A-427
Summary of the method: as §1

H3255 = tested on: H3255
Summary of the method: as §1

NCI-H2170 = tested on: NCI-H2170
Summary of the method: as §1

HCC-44 = tested on: HCC-44
Summary of the method: as §1

NCI-H1793 = tested on: NCI-H1793
Summary of the method: as §1

LXF-289 = tested on: LXF-289
Summary of the method: as §1

NCI-H358 = tested on: NCI-H358
Summary of the method: as §1

NCI-H2087 = tested on: NCI-H2087
Summary of the method: as §1

NCI-H522 = tested on: NCI-H522
Summary of the method: as §1

NCI-H1915 = tested on: NCI-H1915
Summary of the method: as §1

Cc1csc(=NC2CCCCC2)n1/N=C/c1ccc(O)c(O)c1O [MIM1] + NC(=O)Nc1cc(-c2cccc(F)c2)sc1C(=O)N[C@H]1CCCNC1 [AZD7762] (partner 0.2 µM)
relative viability (NCI-H1944; first compound 0.2 µM): 0.511 | relative viability (NCI-H1944; first compound 0.6325 µM): 0.479 | relative viability (NCI-H1944; first compound 2 µM): 0.475 | relative viability (NCI-H1944; first compound 6.325 µM): 0.397 | relative viability (NCI-H1944; first compound 20 µM): 0.243 | relative viability (HCC-827; first compound 0.2 µM): 0.245 | relative viability (HCC-827; first compound 0.6325 µM): 0.235 | relative viability (HCC-827; first compound 2 µM): 0.165 | relative viability (HCC-827; first compound 6.325 µM): 0.189 | relative viability (HCC-827; first compound 20 µM): 0.304 | relative viability (NCI-H1993; first compound 0.2 µM): 0.704 | relative viability (NCI-H1993; first compound 0.6325 µM): 0.761 | relative viability (NCI-H1993; first compound 2 µM): 0.73 | relative viability (NCI-H1993; first compound 6.325 µM): 0.569 | relative viability (NCI-H1993; first compound 20 µM): 0.35 | relative viability (LCLC-103H; first compound 0.2 µM): 0.691 | relative viability (LCLC-103H; first compound 0.6325 µM): 0.79 | relative viability (LCLC-103H; first compound 2 µM): 0.759 | relative viability (LCLC-103H; first compound 6.325 µM): 0.698 | relative viability (LCLC-103H; first compound 20 µM): 0.399 | relative viability (NCI-H1792; first compound 0.2 µM): 0.657 | relative viability (NCI-H1792; first compound 0.6325 µM): 0.565 | relative viability (NCI-H1792; first compound 2 µM): 0.733 | relative viability (NCI-H1792; first compound 6.325 µM): 0.559 | relative viability (NCI-H1792; first compound 20 µM): 0.858 | relative viability (SW 900; first compound 0.2 µM): 0.669 | relative viability (SW 900; first compound 0.6325 µM): 0.615 | relative viability (SW 900; first compound 2 µM): 0.592 | relative viability (SW 900; first compound 6.325 µM): 0.296 | relative viability (SW 900; first compound 20 µM): 0.19 | relative viability (LOU-NH91; first compound 0.2 µM): 0.731 | relative viability (LOU-NH91; first compound 0.6325 µM): 0.779 | relative viability (LOU-NH91; first compound 2 µM): 0.677 | relative viability (LOU-NH91; first compound 6.325 µM): 0.637 | relative viability (LOU-NH91; first compound 20 µM): 0.279 | relative viability (NCI-H1975; first compound 0.2 µM): 0.765 | relative viability (NCI-H1975; first compound 0.6325 µM): 0.628 | relative viability (NCI-H1975; first compound 2 µM): 0.697 | relative viability (NCI-H1975; first compound 6.325 µM): 0.549 | relative viability (NCI-H1975; first compound 20 µM): 0.572 | relative viability (A-427; first compound 0.2 µM): 0.706 | relative viability (A-427; first compound 0.6325 µM): 0.7 | relative viability (A-427; first compound 2 µM): 0.651 | relative viability (A-427; first compound 6.325 µM): 0.525 | relative viability (A-427; first compound 20 µM): 0.395 | relative viability (H3255; first compound 0.2 µM): 0.863 | relative viability (H3255; first compound 0.6325 µM): 0.85 | relative viability (H3255; first compound 2 µM): 0.783 | relative viability (H3255; first compound 6.325 µM): 0.571 | relative viability (H3255; first compound 20 µM): 0.371 | relative viability (NCI-H2170; first compound 0.2 µM): 0.857 | relative viability (NCI-H2170; first compound 0.6325 µM): 0.826 | relative viability (NCI-H2170; first compound 2 µM): 0.759 | relative viability (NCI-H2170; first compound 6.325 µM): 0.368 | relative viability (NCI-H2170; first compound 20 µM): 0.158 | relative viability (HCC-44; first compound 0.2 µM): 0.985 | relative viability (HCC-44; first compound 0.6325 µM): 0.985 | relative viability (HCC-44; first compound 2 µM): 0.961 | relative viability (HCC-44; first compound 6.325 µM): 0.947 | relative viability (HCC-44; first compound 20 µM): 0.521 | relative viability (NCI-H1793; first compound 0.2 µM): 0.614 | relative viability (NCI-H1793; first compound 2 µM): 0.412 | relative viability (NCI-H1793; first compound 6.325 µM): 0.424 | relative viability (NCI-H1793; first compound 20 µM): 0.271 | relative viability (LXF-289; first compound 0.2 µM): 1.07 | relative viability (LXF-289; first compound 0.6325 µM): 0.905 | relative viability (LXF-289; first compound 2 µM): 1.12 | relative viability (LXF-289; first compound 6.325 µM): 0.85 | relative viability (LXF-289; first compound 20 µM): 0.378 | relative viability (NCI-H358; first compound 0.2 µM): 0.496 | relative viability (NCI-H358; first compound 0.6325 µM): 0.512 | relative viability (NCI-H358; first compound 2 µM): 0.468 | relative viability (NCI-H358; first compound 6.325 µM): 0.342 | relative viability (NCI-H358; first compound 20 µM): 0.231 | relative viability (NCI-H2087; first compound 0.2 µM): 1.31 | relative viability (NCI-H2087; first compound 0.6325 µM): 1.29 | relative viability (NCI-H2087; first compound 2 µM): 1.45 | relative viability (NCI-H2087; first compound 6.325 µM): 0.87 | relative viability (NCI-H2087; first compound 20 µM): 1.05 | relative viability (NCI-H522; first compound 0.2 µM): 0.891 | relative viability (NCI-H522; first compound 0.6325 µM): 0.957 | relative viability (NCI-H522; first compound 2 µM): 0.824 | relative viability (NCI-H522; first compound 6.325 µM): 0.78 | relative viability (NCI-H522; first compound 20 µM): 0.511 | relative viability (NCI-H1915; first compound 0.2 µM): 0.691 | relative viability (NCI-H1915; first compound 0.6325 µM): 0.495 | relative viability (NCI-H1915; first compound 2 µM): 0.574 | relative viability (NCI-H1915; first compound 6.325 µM): 0.384 | relative viability (NCI-H1915; first compound 20 µM): 0.283
